Test results from patent US5744161A, “Use of piperine as a bioavailability enhancer” (priority 1995, dated 1998).
Values joined by “and” are separate entries in the source; they are usually repeats but may differ in a detail not shown here. Equal values may be shown once. “Also recorded” adds a separate entry of the source. Read-outs that look alike come from different tables or passages of the source.

Key:
[1] = 20 mg piperine daily for seven days, then 300 mg phenytoin; cited from earlier work
preweaned mice = conditions: cited from earlier work; for tumor development / carcinogenic potency compared with methylcholantrene: injected, preweaned mice; for effect on carcinogenic activity of safarole, tannic acid or methylcholantrene: fed to injected mice
cytochrome P-450 = conditions: cited from earlier work
[2] = cited from earlier work
[3] = with piperine, cited from earlier work
laboratory animals = conditions: broad range of doses; cited from earlier work
rats [4] = conditions: 100 mg and 800 mg/kg intragastric; 10 mg/kg and 100 mg/kg intra-peritoneal; cited from earlier work
[5] = co-administered drugs; cited from earlier work
[6] = Margin of bioenhancing dose of piperine versus LD50 in rodents; design: species or system mice and rats; conditions: in vivo; maximum approx. 15 mg/person/day, no more than 20 mg/day; read-out: bioenhancing dose less than LD50 dose
Description: Black pepper contains approximately 5-9% piperine and is listed by the FDA as an herb which is generally recognized as safe (GRAS) for its intended use as spice, seasoning, or flavoring.
The dose of piperine considered as bioenhancing absorption of nutrients is considered 0.0004-0.15 mg of piperine/kg body weight.

V-79 lung fibroblasts = conditions: in vitro; cited from earlier work
[7] = test system: rats injected with carageenin; conditions: cited from earlier work
[8] = test system: mice treated with potent hepatotoxins tetra-hydroperoxide and carbon tetrachloride; conditions: cited from earlier work
[9] = test system: mice treated with potent hepatotoxins and carbon tetrachloride; conditions: in vivo and in vitro experiments; cited from earlier work
Mice = conditions: cited from earlier work
Rat = conditions: cited from earlier work
rats [10] = conditions: cited from earlier work
[11] = Blood levels of vitamin A (retinol) before and after 14 days supplementation; assay type: in vivo, human; conditions: 5 mg piperine with beta-carotene, in words
Description: Piperine known under the trademark Bioperine® consisting of 98% piperine has been evaluated in a nutrient bioavailability experiment.
A dose of 5 mg of piperine, and up to 15 mg, would most likely not interfere with the metabolism of a majority of drugs as previously discussed. […] Retinol, or vitamin A, is a product of metabolic conversion of beta-carotene, and its blood levels would likely be affected by enzymatic inhibition/stimulation with piperine.
Values of Vitamin A (retinol) before treatment and after
14 days supplementation with Bioperine ®

[12] = test system: benzo(a)pyrene activation; conditions: cited from earlier work
[13] = in vivo and in vitro experiments
[14] = dose that significantly inhibited pregnancy
[15] = 5 to 20 times the average daily human intake

O=C1NC(=O)C(c2ccccc2)(c2ccccc2)N1 [phenytoin]
blood concentration of phenytoin [1]: increased blood levels; also recorded: rose more rapidly
elimination of phenytoin [1]: dramatically prolonged the elimination time; also recorded: significantly slower elimination
maximum concentration of phenytoin [1]: significantly higher concentrations
time to maximum concentration of phenytoin [1]: shorter time

Cc1ccc2cc3c(ccc4ccccc43)c3c2c1CC3 [methylcholantrene]
tumor development (preweaned mice): developed tumors

C=CCc1ccc2c(c1)OCO2 [safarole]
carcinogenic potency compared with methylcholantrene (preweaned mice): weak carcinogens
tumor development (preweaned mice): developed tumors
increase of cytochrome P-450 content of hepatic microsomes (cytochrome P-450; pretreatment of rats): about 50%

O=C(OC[C@H]1O[C@@H](OC(=O)c2cc(O)c(O)c(OC(=O)c3cc(O)c(O)c(O)c3)c2)[C@H](OC(=O)c2cc(O)c(O)c(OC(=O)c3cc(O)c(O)c(O)c3)c2)[C@@H](OC(=O)c2cc(O)c(O)c(OC(=O)c3cc(O)c(O)c(O)c3)c2)[C@@H]1OC(=O)c1cc(O)c(O)c(OC(=O)c2cc(O)c(O)c(O)c2)c1)c1cc(O)c(O)c(OC(=O)c2cc(O)c(O)c(O)c2)c1 [tannic acid]
carcinogenic potency compared with methylcholantrene (preweaned mice): weak carcinogens
tumor development (preweaned mice): developed tumors

Cn1c(=O)c2[nH]cnc2n(C)c1=O [theophylline]
maximum concentration of theophylline, increase ([2]; 20 mg piperine daily for seven days, then 150 mg theophylline): 1.5 times higher
blood levels of theophylline ([2]; 20 mg piperine for seven days prior): increased blood levels

C=C(C)[C@H]1CC=C(C)CC1 [d-limonene]
effect on carcinogenic activity of safarole, tannic acid or methylcholantrene (preweaned mice): reduced their carcinogenic activity

CC(C)NCC(O)COc1cccc2ccccc12 (stereo not shown) [propranolol]
elimination rate of propranolol ([3]; 3 mg dose): did not affect the elimination rate; also recorded: without slowing down the drug elimination rate
maximum blood concentration increase of propranolol ([3]; 3 mg dose): two fold; also recorded: doubling its blood levels
plasma / blood levels of propranolol [3]: significant increase in plasma levels; also recorded: significant increase in blood levels

O=C(/C=C/C=C/c1ccc2c(c1)OCO2)N1CCCCC1 [piperine]
general growth pattern, body to organ weight ratio, clinical symptomatology and blood chemistry (laboratory animals): does not cause any abnormality
serum sorbitol dehydrogenase (SDH), ALT, AST and isocitrate dehydrogenase (ICD) (rats [4]): None of the treatment regiments altered significantly
bioavailability of a number of drugs [5]: increase the bioavailability, blood levels and efficacy of a number of drugs
selectivity ratio [6]: ≤ 40000
effect on benzo(a)pyrene cytotoxicity (V-79 lung fibroblasts): significantly enhanced benzo(a)pyrene cytotoxicity
acid phosphatase levels [7]: leveling off increased levels of acid phosphatase
lipid peroxide formation [7]: inhibiting lipid peroxide formation
effect on carcinogenic activity of safarole, tannic acid or methylcholantrene (preweaned mice): did not modify their carcinogenic activity
decrease of cytochrome P-450 content of hepatic microsomes (cytochrome P-450; treatment of rats): approximately 20%
hepatoprotective action [8, 13]: hepatoprotective action
lipid peroxidation [8, 13]: decrease in lipid peroxidation
reduced glutathione and total thiols in the liver ([8]; mouse, in vivo): prevented depletion of reduced glutathione and total thiols
enzymatic leakage of glutamate pyruvate transaminase and alkaline phosphatase [9]: reduced enzymatic leakage
anti-fertility activity (Mice; 5 mg/kg body weight/day): no anti-fertility activity
inhibition of pregnancy (Mice; 12.5 mg/kg body weight, twice a day, intraperitoneal or oral): inhibited significantly pregnancy in mice
effectiveness at pre- and post-implantation periods (Mice; 12.5 mg/kg body weight, twice a day): effective at both pre- and post-implantation periods
clinically noticeable toxicity (Mice; [14]): did not produce clinically noticeable toxicity
effect on estrogen cycle (Mice; [14]): did not interfere with the estrogen cycle
uterotropic effect (Mice; [14]): did not show uterotropic effect
LD50 (Rat; Rat weanling): 585.0 mg/kg body weight
LD50 (Rat; Rat): 514.0 mg/kg body weight and 800.0 mg/kg body weight
clinical symptoms (rats [10]; [15]): no clinical symptoms
food intake, growth pattern, organ weights (rats [10]; [15]): did not affect
blood chemistry (RBC, WBC, differential count, hemoglobin, serum proteins, albumins, globulins, glucose, cholesterol, aminotransferases, phosphatases) (rats [10]; treated vs untreated animals): no alterations
blood levels of retinol / conversion of beta-carotene to vitamin A [11]: remained unchanged throughout the experiment; also recorded: does not elevate the conversion of beta-carotene to vitamin A
effect on benzo(a)pyrene cytotoxicity ([12]; by lowering benzo(a)pyrene-oxide production): decreasing benzo(a)pyrene cytotoxicity
effect on benzo(a)pyrene activation (benzo(a)pyrene-oxide production) [12]: inhibit benzo(a)pyrene activation
